Measurements published in patent publication US20250351832A1, “PHYTOCHEMICALS AS BIOPESTICIDES AND BIOSTIMULANTS” (KAY BEE BIO ORGANICS PVT. LTD., priority 2024, published 2025).
Like-named read-outs stand apart in the source and are kept apart here.

Columns and labels:
Thrips [1] = settings: thrips on cotton plants, greenhouse, dose 1 ml/gm/lit. spray; for % Mortality at 48 Hrs. / Total No. of dead insect at 48 Hrs.: 48 hrs after application; for % Corrected Mortality at 48 Hrs.: corrected for water control
[2] = cited from earlier work; for Phytotonic Effect: Table 13, effect on plants, descriptive
Spodoptera litura [3] = settings: Spodoptera litura 3rd instar on cabbage plants, dose 1 ml/gm/lit. spray; for % Mortality at 72 Hrs.: 72 hrs after application; for % Corrected Mortality at 72 Hrs.: corrected for water control
Mite [4] = settings: Dose 1 ml/gm/lit.; for Total No. of dead insect at 48 Hrs.: 10 insects/treatment, 4 replications, okra leaves
Spodoptera litura [5] = settings: Spodoptera litura on castor leaves; dose 1 ml/gm/lit.; 10 insects/treatment; 72 hrs after application
Spodoptera litura [6] = assay: whole plant or invertebrate; settings: 72 h
Mealy Bug [7] = settings: Mealy Bug on cotton leaves, dose 1 ml/gm/lit., 48 Hrs.; for Total No. of dead insect at 48 Hrs.: 10 insects/treatment, 4 replications; for % Corrected Mortality at 48 Hrs.: corrected for water control
Thrips [8] = settings: Thrips on cotton leaves; dose 1 ml/gm/lit.; 10 insects/treatment; 48 hrs after application
Aphid [9] = settings: Dose 1 ml/gm/lit.; for Total No. of dead insect at 48 Hrs.: 10 insects/treatment, 4 replications, cotton leaves
Helicoverpa armigera [10] = settings: Helicoverpa armigera 3rd instar on chickpea plants, dose 1 ml/gm/lit. spray; for % Mortality at 72 Hrs.: 72 hrs after application; for % Corrected Mortality at 72 Hrs.: corrected for water control
tomato seedlings = assay: Response of tomato plants, greenhouse growth (Ex. 30); format: in vivo; settings: tomato seedlings, dose 1 ml/gm/lit; for Plant Height 5th Day / Stem Girth 5th Day / CCI 5th Day: 5th day after application; for Plant Height 10th Day / Stem Girth 10th Day / CCI 10th Day: 10th day after application; for Plant Height % Increase over pre on 10th Day / Stem Girth % Increase over pre on 10th Day / CCI % Increase over pre on 10th Day / Root Length (cm) 10th Day / Root Length % Increase over control: 10th day; for Root Length % Increase over control: vs water control
chili seedlings = assay: Response of chili plants, greenhouse growth (Ex. 31); format: in vivo; settings: chili seedlings, dose 1 ml/gm/lit; for CCI 5th Day / Plant Height (cm) 5th Day: 5th day after application; for CCI 10th Day / Plant Height (cm) 10th Day: 10th day after application; for CCI % Increase over pre on 10th Day / Plant Height % Increase over pre on 10th Day / Root Lenght (cm) 10th Day / Stem Girth % Increase over pre on 10th Day / Root Lenght % Increase over control: 10th day; for Root Lenght % Increase over control: vs water control
Alternaria alternata [11] = assay: In vitro poisoned food technique against fungus (Ex. 20); format: cell-based; settings: poisoned food technique, PDA medium, dose 1 ml/gm/lit., after seven days; for inhibition of growth at 1 mL or g/L: vs untreated control, read-out: % Inhibition of growth
Aphid [12] = settings: Aphids on cotton plants, green house; dose 1 ml/gm/lit.; 10 insects/plant, 10 plants/treatment; 48 hrs
Mealy Bug [13] = settings: mealy bug on cotton plants, green house, dose 1 ml/gm/lit. spray; for % Mortality at 48 Hrs. / Total No. of dead insect at 48 Hrs.: 48 hrs after application; for % Corrected Mortality at 48 Hrs.: corrected for water control
Helicoverpa armigera [14] = settings: Helicoverpa armigera on okra fruits, dose 1 ml/gm/lit., 72 Hrs.; for Total No. of dead insect at 72 Hrs.: 10 insects/treatment, 4 replications; for % Corrected Mortality at 72 Hrs.: corrected for water control
Thrips [15] = assay: whole plant or invertebrate; settings: in Gossypium hirsutum, 48 h
Alternaria alternata [16] = assay: Alternaria leaf spot/blight on inoculated tomato plants (Ex. 28); format: in vivo; settings: tomato plants, Alternaria alternata; after 7 days; dose 1 ml/gm/lit
Aphid [17] = assay: whole plant or invertebrate; settings: 48 h
Mite [18] = settings: mite on okra plants, green house, dose 1 ml/gm/lit. spray; for % Mortality at 48 Hrs. / Total No. of dead insect at 48 Hrs.: 48 hrs after application; for % Corrected Mortality at 48 Hrs.: corrected for water control
[19] = Table 13, descriptive, no test described
[20] = read-out: % Corrected Mortality at 72 Hrs.
[21] = read-out: % Mortality at 72 Hrs.
[22] = read-out: % Corrected Mortality at 48 Hrs.
[23] = read-out: % Mortality at 48 Hrs.

SMILES: O=c1oc2c(O)c(O)cc3c(=O)oc4c(O)c(O)cc1c4c23 [Ellagic acid]
- % Mortality at 48 Hrs. (Thrips [1]): 32.50%
- Total No. of dead insect at 48 Hrs. (Thrips [1]): 32.50
- % Corrected Mortality at 48 Hrs. (Thrips [1]): 25.00%
- Acaricidal Activity - Mode of action [2, 19]: Shows acaricidal activities
- Antifungal Activity - Mode of action [2, 19]: Fungicidal activities
- Antioxidant Activity - Mode of action [2, 19]: Exhibit antioxidant
- Bactericidal Activity - Mode of action [2, 19]: Exhibits bactericidal
- Insecticidal Activities - Mode of action [2, 19]: Inhibit the growth, food
- Phytotonic Effect [2]: Reduces plant
- % Mortality at 72 Hrs. (Spodoptera litura [3]): 55.00%
- % Corrected Mortality at 72 Hrs. (Spodoptera litura [3]): 52.63%
- Total No. of dead insect at 48 Hrs. (Mite [4]): 5.00
- % Corrected Mortality at 48 Hrs. (Mite [4]; 48 hrs): 45.95%
- Total No. of dead insect at 72 Hrs. (Spodoptera litura [5]): 6.00
- mortality at 1 mL or g/L (Spodoptera litura [6]; [20]): 57.9%
- mortality at 1 mL or g/L (Spodoptera litura [6]; [21]): 60%
- Total No. of dead insect at 48 Hrs. (Mealy Bug [7]): 6.00
- % Mortality at 48 Hrs. (Mealy Bug [7]): 60.00%
- % Corrected Mortality at 48 Hrs. (Mealy Bug [7]): 57.89%
- Total No. of dead insect at 48 Hrs. (Thrips [8]): 3.50
- Total No. of dead insect at 48 Hrs. (Aphid [9]): 7.25
- % Corrected Mortality at 48 Hrs. (Aphid [9]; 48 hrs): 68.57%
- % Mortality at 48 Hrs. (Aphid [9]; 48 hrs): 72.50%
- % Mortality at 72 Hrs. (Helicoverpa armigera [10]): 70.00%
- % Corrected Mortality at 72 Hrs. (Helicoverpa armigera [10]): 70.00%
- Plant Height 5th Day (tomato seedlings): 7.09 cm
- Stem Girth 5th Day (tomato seedlings): 1.54 mm
- Plant Height 10th Day (tomato seedlings): 8.18 cm
- Stem Girth 10th Day (tomato seedlings): 2.19 mm
- Plant Height % Increase over pre on 10th Day (tomato seedlings): 36.11%
- Stem Girth % Increase over pre on 10th Day (tomato seedlings): 62.87%
- CCI 5th Day (tomato seedlings): 13.39
- CCI % Increase over pre on 10th Day (tomato seedlings): 28.96%
- Root Length (cm) 10th Day (tomato seedlings): 4.48 cm
- CCI 10th Day (tomato seedlings): 14.56
- Root Length % Increase over control (tomato seedlings): 34.64%
- CCI 5th Day (chili seedlings): 16.35
- Plant Height (cm) 5th Day (chili seedlings): 5.77 cm
- CCI % Increase over pre on 10th Day (chili seedlings): 67.49%
- Plant Height % Increase over pre on 10th Day (chili seedlings): 62.60%
- Root Lenght (cm) 10th Day (chili seedlings): 3.92 cm
- Stem Girth % Increase over pre on 10th Day (chili seedlings): 51.20%
- CCI 10th Day (chili seedlings): 16.95
- Plant Height (cm) 10th Day (chili seedlings): 6 cm
- Root Lenght % Increase over control (chili seedlings): 43.41%
- Mean colony Diameter (mm) (Alternaria alternata [11]): 44.00 mm
- inhibition of growth at 1 mL or g/L (Alternaria alternata [11]): 50%
- Total No. of dead insect at 48 Hrs. (Aphid [12]): 75.00
- % Mortality at 48 Hrs. (Mealy Bug [13]): 57.50%
- Total No. of dead insect at 48 Hrs. (Mealy Bug [13]): 57.50
- % Corrected Mortality at 48 Hrs. (Mealy Bug [13]): 52.78%
- Total No. of dead insect at 72 Hrs. (Helicoverpa armigera [14]): 7.25
- % Mortality at 72 Hrs. (Helicoverpa armigera [14]): 72.50%
- % Corrected Mortality at 72 Hrs. (Helicoverpa armigera [14]): 72.50%
- mortality at 1 mL or g/L (Thrips [15]; [22]): 25.7%
- mortality at 1 mL or g/L (Thrips [15]; [23]): 35%
- % Disease reduction over Control (Alternaria alternata [16]): 66.12%
- mortality at 1 mL or g/L (Aphid [17]; [22]): 70.6%
- mortality at 1 mL or g/L (Aphid [17]; [23]): 75%
- % Mortality at 48 Hrs. (Mite [18]): 52.50%
- Total No. of dead insect at 48 Hrs. (Mite [18]): 52.50
- % Corrected Mortality at 48 Hrs. (Mite [18]): 50.00%

SMILES: CCCCCCCCCC(C)=O [Embodiment 2-undecanone, 2-undecanone]
- % Mortality at 48 Hrs. (Thrips [1]): 47.50%
- Total No. of dead insect at 48 Hrs. (Thrips [1]): 47.50
- % Corrected Mortality at 48 Hrs. (Thrips [1]): 41.67%
- Antifungal Activity - Mode of action [2, 19]: Antifungal and repellent
- Bactericidal Activity - Mode of action [2, 19]: Moderate anti-bacterial
- Insecticidal Activities - Mode of action [2, 19]: Insecticidal action,
- Phytotonic Effect [2]: Increasing root
- % Mortality at 72 Hrs. (Spodoptera litura [3]): 42.50%
- % Corrected Mortality at 72 Hrs. (Spodoptera litura [3]): 39.47%
- Total No. of dead insect at 48 Hrs. (Mite [4]): 3.00
- % Corrected Mortality at 48 Hrs. (Mite [4]; 48 hrs): 24.32%
- % Mortality at 48 Hrs. (Mite [4]; 48 hrs): 30.00%
- Total No. of dead insect at 72 Hrs. (Spodoptera litura [5]): 4.00
- mortality at 1 mL or g/L (Spodoptera litura [6]; [20]): 36.8%
- mortality at 1 mL or g/L (Spodoptera litura [6]; [21]): 40%
- Total No. of dead insect at 48 Hrs. (Mealy Bug [7]): 5.50
- % Mortality at 48 Hrs. (Mealy Bug [7]): 55.00%
- % Corrected Mortality at 48 Hrs. (Mealy Bug [7]): 52.63%
- Total No. of dead insect at 48 Hrs. (Thrips [8]): 5.00
- Total No. of dead insect at 48 Hrs. (Aphid [9]): 6.75
- % Corrected Mortality at 48 Hrs. (Aphid [9]; 48 hrs): 62.86%
- % Mortality at 72 Hrs. (Helicoverpa armigera [10]): 52.50%
- % Corrected Mortality at 72 Hrs. (Helicoverpa armigera [10]): 52.50%
- Plant Height 5th Day (tomato seedlings): 6.48 cm
- Stem Girth 5th Day (tomato seedlings): 1.61 mm
- Plant Height 10th Day (tomato seedlings): 7.56 cm
- Stem Girth 10th Day (tomato seedlings): 2.40 mm
- Plant Height % Increase over pre on 10th Day (tomato seedlings): 40.52%
- Stem Girth % Increase over pre on 10th Day (tomato seedlings): 68.29%
- CCI 5th Day (tomato seedlings): 13.42
- CCI % Increase over pre on 10th Day (tomato seedlings): 30.95%
- Root Length (cm) 10th Day (tomato seedlings): 4.54 cm
- CCI 10th Day (tomato seedlings): 15.23
- Root Length % Increase over control (tomato seedlings): 36.48%
- CCI 5th Day (chili seedlings): 13.57
- Plant Height (cm) 5th Day (chili seedlings): 5.97 cm
- CCI % Increase over pre on 10th Day (chili seedlings): 70.42%
- Plant Height % Increase over pre on 10th Day (chili seedlings): 68.11%
- Root Lenght (cm) 10th Day (chili seedlings): 4.44 cm
- Stem Girth % Increase over pre on 10th Day (chili seedlings): 60.61%
- CCI 10th Day (chili seedlings): 15.15
- Plant Height (cm) 10th Day (chili seedlings): 6.59 cm
- Root Lenght % Increase over control (chili seedlings): 62.21%
- Mean colony Diameter (mm) (Alternaria alternata [11]): 52.00 mm
- inhibition of growth at 1 mL or g/L (Alternaria alternata [11]): 40.9%
- Total No. of dead insect at 48 Hrs. (Aphid [12]): 67.50
- % Mortality at 48 Hrs. (Mealy Bug [13]): 57.50%
- Total No. of dead insect at 48 Hrs. (Mealy Bug [13]): 57.50
- % Corrected Mortality at 48 Hrs. (Mealy Bug [13]): 52.78%
- Total No. of dead insect at 72 Hrs. (Helicoverpa armigera [14]): 5.50
- % Mortality at 72 Hrs. (Helicoverpa armigera [14]): 55.00%
- % Corrected Mortality at 72 Hrs. (Helicoverpa armigera [14]): 55.00%
- mortality at 1 mL or g/L (Thrips [15]; [22]): 42.9%
- mortality at 1 mL or g/L (Thrips [15]; [23]): 50%
- % Disease reduction over Control (Alternaria alternata [16]): 58.68%
- mortality at 1 mL or g/L (Aphid [17]; [22]): 61.8%
- mortality at 1 mL or g/L (Aphid [17]; [23]): 67.5%
- % Mortality at 48 Hrs. (Mite [18]): 27.50%
- Total No. of dead insect at 48 Hrs. (Mite [18]): 27.50
- % Corrected Mortality at 48 Hrs. (Mite [18]): 23.68%
